From US8173768B2, “Peptides having antimicrobial and neurotrophic activity and uses thereof” (priority 2009, dated 2012)
Bridge positions count the residues as written; N and C are the ends. Square brackets hold non-standard residues; d marks the D form. Ends that are not written are not given here. Peptide text beside a SMILES is read from it. Phe(ol) = N[C@H](CO)Cc1ccccc1; Aib = CC(C)(N)C(=O)O

What was measured:
[1] = pore-forming activity (dissipation of membrane potential in liposomes); assay type: biochemical
Description: Antimicrobial assays: After each purification step, antibacterial activity was monitored by a solid plate assay as described in previous studies (14). The minimal inhibitory concentration (MIC) and the minimal bactericidal concentration (MBC) were determined according to the method of Hancock (http://cmdr.ubc.ca/bobh/showmethod.php?methodid=79). Permeabilization of bacterial membranes and pore-forming activity were assayed as previously described (Herbst, R et al. (2002), J Biol Chem 277:22353-22360; Leippe, M. et al. 1991. Proc Natl Acad Sci USA 88:7659-7663).
No activity was found towards the Gram negative A. hydrophila at the same concentration. […] Since neuromacin contains four histidine residues in its primary structure (in contrast to none in theromacin), we evaluated the effect of a more acidic pH, at which the histidine residues are protonated, on the membrane-permeabilizing activity (FIG. 5B). […] Similar activity against the Gram-negative representative E. coli was not detected up to a neuromacin concentration of 25 μM (data not shown). We also measured the pore-forming activity of neuromacin to further characterize its mode of action by using a minimalistic membrane system. More precisely, we monitored the dissipation of a membrane potential induced in liposomes composed of azolectin, a crude phospholipid mixture from soy bean.

B. megaterium = assay: SYTOX Green membrane permeabilization assay; assay type: cell-based, Bacillus megaterium
Description: FIG. 5 illustrates membrane permeabilization of B. megaterium induced by neuromacin. Membrane damage of the bacteria was measured fluorometrically using the dye SYTOX Green. […] Antibacterial activity of the peptides is expressed as a percentage of permeabilized bacteria. (A) Time kinetics of membrane permeabilization induced by neuromacin measured for different doses at various incubation periods. (B) Membrane permeabilizing effects of neuromacin (rhombs) in comparison with cecropin P1 (triangles) and magainin II (circles) after 30 min of incubation of B. megaterium with each peptide at various concentrations, at pH 5.2 (open symbols) and at pH 7.4 (closed symbols). […]
(§1) Antimicrobial assays: After each purification step, antibacterial activity was monitored by a solid plate assay as described in previous studies (14). The minimal inhibitory concentration (MIC) and the minimal bactericidal concentration (MBC) were determined according to the method of Hancock (http://cmdr.ubc.ca/bobh/showmethod.php?methodid=79). […]
No activity was found towards the Gram negative A. hydrophila at the same concentration. […] Since neuromacin contains four histidine residues in its primary structure (in contrast to none in theromacin), we evaluated the effect of a more acidic pH, at which the histidine residues are protonated, on the membrane-permeabilizing activity (FIG. 5B). […]

[2] = test system: Gram negative A. hydrophila; assay: liquid growth inhibition assay; assay type: cell-based, Aeromonas hydrophila; settings: at the same concentration as against M. nishinomiyaensis
Description: Microorganisms: The Gram-positive and Gram-negative bacteria Micrococcus nishinomiyaensis and Aeromonas hydrophila respectively were isolated from the natural environment of Hirudo medicinalis. These bacterial colonies, which are present in the water, were selected from agar plate under aerobic conditions at room temperature using a random isolation grid. The Gram-positive bacteria Bacillus megaterium was used for the SYTOX Green assay.
as §1
No activity was found towards the Gram negative A. hydrophila at the same concentration. […] Since neuromacin contains four histidine residues in its primary structure (in contrast to none in theromacin), we evaluated the effect of a more acidic pH, at which the histidine residues are protonated, on the membrane-permeabilizing activity (FIG. 5B). […] Similar activity against the Gram-negative representative E. coli was not detected up to a neuromacin concentration of 25 μM (data not shown). […]

axotomized nerve cords = assay: regeneration of axotomized leech nerve cord ex vivo (time-lapse); design: species or system Hirudo medicinalis; settings: native neuromacin 4 μM, aseptic conditions; 4 days without neuromacin
Description: Collection and treatment of the nerve cords: Adult leeches, Hirudo medicinalis species, weighting 2-3 g were purchased from a commercial supplier (Ricarampex, France). Animals were kept in artificial pond water and starved up to 3 weeks before use. Leeches were anaesthetised in 10% ethanol-spring water for 20 min and the nerve cords were removed according to the protocol of Nicholls et al (J Neurophysiol, 1968, 31:740-756.). After three successive baths in antibiotics, cords were placed in Leibowitz-15 (L-15, Gibco) culture medium supplemented with 2% fetal calf serum, 0.6% glucose and gentamicin ([…]) (Nature, 1979, 281:67-69). Connectives between ganglia were injured in a standard manner using a pair of sterilized fine iridectomy scissors. Axotomized nerve cords were separately incubated in L-15 medium containing different microbial components: 3×10^7 CFU/ml of heat killed or live bacteria, 10 μg/ml of polyI:C (Invivogen), 100 μg/ml of zymosan (Invivogen,) and 100 μg/ml of mannane (Invivogen) for different time (t=0 to t=8 days) at room temperature. Incubations without microbial components or bacteria were performed in the same conditions as controls. All the steps were performed under sterile conditions. […]

| Compound | pore-forming activity ([1]; positive control at 50 nM (data not shown)) | pore-forming activity ([1]; final concentrations up to 2 μM (data not shown)) | activity relative to cecropin P1 and magainin II (B. megaterium; B. megaterium, within the measurement period) | efficacy to induce membrane lesions, effect of pH (B. megaterium; pH 5.2 versus pH 7.4, FIG. 5B) | activity towards A. hydrophila [2] | start of reconnection post-axotomy (axotomized nerve cords) |
| --- | --- | --- | --- | --- | --- | --- |
| CC(=O)NC(C)(C)C(=O)N1CCC[C@H]1C(=O)NC(C)(C)C(=O)N[C@@H](C)C(=O)NC(C)(C)C(=O)N[C@@H](C)C(=O)N[C@@H](CCC(N)=O)C(=O)NC(C)(C)C(=O)N[C@H](C(=O)NC(C)(C)C(=O)NCC(=O)N[C@@H](CC(C)C)C(=O)NC(C)(C)C(=O)N1CCC[C@H]1C(=O)N[C@H](C(=O)NC(C)(C)C(=O)NC(C)(C)C(=O)N[C@@H](CCC(=O)O)C(=O)N[C@@H](CCC(N)=O)C(=O)N[C@H](CO)Cc1ccccc1)C(C)C)C(C)C [alamethicin, reference compound] (Ac-[Aib]P[Aib]A[Aib]AQ[Aib]V[Aib]GL[Aib]PV[Aib][Aib]EQ[Phe(ol)]) | very strong signal |  |  |  |  |  |
| H-DCYEDWSRCTPGTSFLTGILWKDCHSRCKELGHRGGRCVDSPSKHCPGVLKNNKQCHCY (disulfide 2-46, 9-38, 24-56, 28-58) [neuromacin] |  | not detected | over one order of magnitude lower | weaker at pH 5.2 than at pH 7.4 | No activity | less than 24 hours |
